ED50 data for 1 molecule are collected here from patent publication US4939159A, “Azaindole derivatives useful as cholesterol biosynthesis inhibitors” (Sandoz Pharm. Corp., priority 1989, dated 1990).

For the assay, the system named is 3β-hydroxysterol synthesis. Put plainly: Test B. In Vivo Cholesterol Biosynthesis Inhibition Test. Conditions: Rattus norvegicus, po; rats, orally administered; read-out: ED50 (dose producing 50% inhibition of 3β-hydroxysterol synthesis).

Protocol: Test B. In Yivo Cholesterol Biosynthesis Inhibition Test:
In this test the rats are orally administered the test substance (compound of Formula I) at a dose of 0.025-200 mg/kg body weight. The obtained ED50 the dose of the test substance observed or calculated to produce a 50% inhibition of 3β -hydroxysterol synthesis.

In general, ED50 refers to the dose that gives a 50% effect, or the effect in half of the subjects. `CC[C@H](C)C(=O)O[C@H]1C[C@@H](C)C=C2C=C[C@H](C)[C@H](CC[C@@H]3C[C@@H](O)CC(=O)O3)[C@H]21` [Mevinolin]: the 50% effective dose (ED50) amounted to 0.38 mg/kg.
